Data: patent US20080103173A1, “Compounds Having Activity At Nk3 Receptor And Uses Thereof In Medicine” (SMITHKLINE BEECHAM CORPORATION, priority 2004, published 2008)

Molecular target: T1, NK3 receptor (Homo sapiens, UniProt P29371)
T1 construct: expressed in transfected cells; host or cells: CHO cell lines (plasma membranes)
T1 sequence (P29371 1-465): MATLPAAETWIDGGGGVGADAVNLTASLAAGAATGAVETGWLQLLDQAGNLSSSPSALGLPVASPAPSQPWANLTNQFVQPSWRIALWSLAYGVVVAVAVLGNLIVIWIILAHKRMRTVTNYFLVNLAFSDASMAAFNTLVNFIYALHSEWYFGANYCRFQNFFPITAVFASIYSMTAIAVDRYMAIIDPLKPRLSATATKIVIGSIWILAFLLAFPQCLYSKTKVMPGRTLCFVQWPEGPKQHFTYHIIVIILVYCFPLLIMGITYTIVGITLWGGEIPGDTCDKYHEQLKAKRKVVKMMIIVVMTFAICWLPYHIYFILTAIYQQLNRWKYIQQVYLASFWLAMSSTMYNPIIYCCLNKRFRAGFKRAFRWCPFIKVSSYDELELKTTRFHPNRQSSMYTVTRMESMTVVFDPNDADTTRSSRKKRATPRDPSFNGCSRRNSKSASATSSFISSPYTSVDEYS
Assay: NK3 binding affinity, scintillation proximity assay (SPA), 125I [MePhe7]-NKB
Details: membranes from CHO cell lines expressing NK3 receptors; radioligand 125I [MePhe7]-NKB
Method: a) Measurement of NK3 Binding Affinity
The NK3 binding affinity of the compounds of the invention was determined using the following scintillation proximity assay (SPA) (see H. M. Sarau et al, J. Pharmacol. Experimental Therapeutics 1997, 281(3), 1303-1311; H. M. Sarau et al, J. Pharmacol. Experimental Therapeutics 2000, 295(1), 373-381; G. A. M. Giardina et al J. Med. Chem 1999, 42, 1053-1065). Polystyrene Leadseeker WGA-SPA beads (Amersham Biosciences) were mixed with plasma membrane prepared from CHO cell lines expressing NK3 receptors in a bead/membrane ratio of 20:1 (w/w) in assay buffer (75 mM Tris pH 7.8, 75mM NaCl, 4 mM MnCl2, 1 mM EDTA, 0.05% Chaps, 1 mM PMSF). The mixture was placed on ice for 20 minutes to allow the formation of membrane/bead complex before BSA was added to a final concentration of 1%. After another 20 minutes incubation on ice, the bead/membrane complex was washed twice and suspended in assay buffer. ^125I [MePhe7]-NKB was then added to the bead/membrane complex. […] After 2-3 hours incubation at room temperature with shaking, the plates were spun for 2 min at 1100 rpm and measured in Viewlux imager (PerkinElmer) for 5 minutes with a 618-nm filter. Inhibition of the radioactive ligand binding to the NK3 receptor was measured by the reduction of signal. pKi was calculated using Kd of the radioactive ligand determined in a separate experiment.

Ki: 3.16 nM
SMILES: O=C(N[C@H](c1cccc(F)c1)C1CC1)c1c(CN2CCCC2=O)c(-c2ccccc2)nc2ccccc12 [Example 1, N-[(S)-Cyclopropyl(3-fluorophenyl)methyl]-3-[(2-oxo-1-pyrrolidinyl)methyl]-2-phenyl-4-quinolinecarboxamide]
